Among the data in BindingDB's records for patent US20250213705 (Bright Peak Therapeutics, 2025) are IC50, Kd and Ki values, retold here.

The target of test [1] is T1, Glutamate carboxypeptidase 2 (Homo sapiens, UniProt Q04609). The experiment in a line: Inhibition Assay. As for the experimental part: Prepare a working solution of 100 μM Amplex Red reagent containing 0.25 U/mL HRP, 0.08 U/mL L-glutamate oxidase, 0.5 U/mL 1-glutamate-pyruvate transaminase, 200 μM L-alanine and keep protected from light. […] Final concentration is 5 nM. Transfer 10 μl/well of the inhibitor solution previously prepared in a separate 96 wells/plate. […] Incubate the reactions for 30 min at 37° C., protected from light. Because the assay is continuous (not terminated), fluorescence may be measured at multiple time points to follow the kinetics of the reactions. Measure the fluorescence in a fluorescence microplate reader using excitation in the range of 530-560 nm and emission detection at ˜590 nm. Ec50s were determined with GraphPad Prism. Ki is calculated based on Cheng-Prusoff equation.

The target in test [2] is T1, Glutamate carboxypeptidase 2. The experiment in a line: SPR Analysis. As for the experimental part: The interaction of PSMA-binding variants with human FOLH1 was measured with Surface Plasmon Resonance (SPR) technology. Biotinylated FOLH1 was captured at a concentration of 30 μg/mL onto a Streptavidin chip. […] After each cycle, needles were washed with 50% DMSO. To measure the association to the FOLH1 protein, the samples were injected with a flow rate of 30 μL/min for 90 s, followed by 1200 s buffer only to detect the dissociation. The used running buffer was 1×PBS with 0.05% Tween20 and 2% DMSO. The relative response units (RU, Y-axis) are plotted against time (s, X-axis) and analyzed in a kinetic 1:1 binding model. In a different setup, biotinylated FOLH1 was captured at a concentration of 0.8 μg/mL and the running buffer was 1×PBS with 0.05% Tween20.

T1 sequence (Q04609 whole entry): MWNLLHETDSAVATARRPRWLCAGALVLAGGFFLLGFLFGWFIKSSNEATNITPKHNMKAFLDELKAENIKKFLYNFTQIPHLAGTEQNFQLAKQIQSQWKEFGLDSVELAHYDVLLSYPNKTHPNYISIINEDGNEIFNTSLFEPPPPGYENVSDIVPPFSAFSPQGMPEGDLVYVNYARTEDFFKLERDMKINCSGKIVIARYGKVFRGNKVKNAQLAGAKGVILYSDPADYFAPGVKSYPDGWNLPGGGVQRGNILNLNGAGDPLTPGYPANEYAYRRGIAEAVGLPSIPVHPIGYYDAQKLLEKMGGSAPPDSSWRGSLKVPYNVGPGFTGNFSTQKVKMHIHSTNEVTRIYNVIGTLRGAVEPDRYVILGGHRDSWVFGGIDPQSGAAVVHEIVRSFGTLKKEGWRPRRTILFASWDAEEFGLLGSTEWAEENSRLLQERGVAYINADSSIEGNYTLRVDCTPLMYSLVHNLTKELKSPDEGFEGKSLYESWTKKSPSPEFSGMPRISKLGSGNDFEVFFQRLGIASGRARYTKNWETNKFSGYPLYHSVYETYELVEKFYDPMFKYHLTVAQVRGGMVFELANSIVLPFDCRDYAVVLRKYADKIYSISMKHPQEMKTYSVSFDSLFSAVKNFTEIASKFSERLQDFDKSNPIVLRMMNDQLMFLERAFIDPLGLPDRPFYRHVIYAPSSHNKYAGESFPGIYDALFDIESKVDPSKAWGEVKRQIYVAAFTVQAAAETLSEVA

By IC50 is commonly meant the concentration at which inhibition is half-maximal. Usually Kd stands for the equilibrium constant for the complex coming apart. On to `CC(=O)NCCOCCOCCOCCC(=O)N[C@@H](Cc1cccc(C(=O)O)c1)C(=O)NCC(=O)N[C@@H](Cc1ccc2ccccc2c1)C(=O)NCCCC[C@H](NC(=O)N[C@@H](CCC(=O)O)C(=O)O)C(=O)O` [US20250213705, Compound 84], for which the IC50 in test [1] is 5.11 nM. The same compound showed a Kd in test [2] of 1.05 nM.
Broadly, the Ki is the dissociation constant of the complex between target and ligand, obtained from inhibition or displacement. Low values mean tighter binding, high ones weaker binding. As to `CC(=O)NCCOCCOCCOCCC(=O)N[C@@H]1C[C@@H](C(=O)N[C@@H](Cc2ccc3ccccc3c2)C(=O)NCCCC[C@H](NC(=O)N[C@@H](CCC(=O)O)C(=O)O)C(=O)O)N(C(=O)COc2cc(C#N)cc(C#N)c2)C1` [US20250213705, Compound 81], in test [1], the IC50 was 10.7 nM and the Ki stood at 0.076 nM. In test [2], this compound registered a Kd of 4.12 nM.
For the compound `CC(=O)NCCOCCOCCOCCC(=O)N(CCCOc1cc(C#N)cc(C#N)c1)CC(=O)N[C@@H](Cc1ccc2ccccc2c1)C(=O)NCCCC[C@H](NC(=O)N[C@@H](CCC(=O)O)C(=O)O)C(=O)O` [US20250213705, Compound 78], in test [1], half-maximal inhibition (IC50) was put at 6.95 nM and the affinity, expressed as Ki, was 0.05 nM. The Kd in test [2] is 0.43 nM.
As for `CC(=O)NCCCC[C@H](NC(=O)[C@H]1CC[C@H](CNC(=O)CCOCCOCCOCCNC(C)=O)CC1)C(=O)NCCCC[C@H](NC(=O)N[C@@H](CCC(=O)O)C(=O)O)C(=O)O` [US20250213705, Compound 83], in test [1], the IC50 was determined as 2.87 nM and affinity was put at a Ki of 0.021 nM.
In test [1], `CC(=O)NCCOCCOCCOCCC(=O)N[C@@H](Cc1ccc(C(=O)O)cc1)C(=O)NCC(=O)N[C@@H](Cc1ccc2ccccc2c1)C(=O)NCCCC[C@H](NC(=O)N[C@@H](CCC(=O)O)C(=O)O)C(=O)O` [US20250213705, Compound 94] gave an IC50 of 1.87 nM and a Ki of 0.013 nM. In test [2], the Kd worked out at 2.33 nM.
For `CC(=O)NCCOCCOCCOCCC(=O)NC[C@H]1CC[C@H](C(=O)N[C@@H](Cc2ccc3ccccc3c2)C(=O)NCCCC[C@H](NC(=O)N[C@@H](CC(=O)O)C(=O)O)C(=O)O)CC1` [US20250213705, Compound 23] the same measures were 7010 nM, 50.1 nM and 120 nM.
For the compound `CC(=O)NCCOCCOCCOCCC(=O)N1C[C@H](NC(=O)CCCOc2cc(C#N)cc(C#N)c2)C[C@H]1C(=O)N[C@@H](Cc1ccc2ccccc2c1)C(=O)NCCCC[C@H](NC(=O)N[C@@H](CCC(=O)O)C(=O)O)C(=O)O` [US20250213705, Compound 80], in test [1], it took 2.35 nM to reach half-maximal inhibition (IC50) and affinity was put at a Ki of 0.017 nM. Besides, in test [2], the Kd was 2.46 nM.
In test [1], `CC(=O)NCCOCCOCCOCCC(=O)N[C@@H]1C[C@@H](C(=O)NCC(=O)N[C@@H](Cc2ccc3ccccc3c2)C(=O)NCCCC[C@H](NC(=O)N[C@@H](CCC(=O)O)C(=O)O)C(=O)O)N(C(=O)CCCOc2cc(C#N)cc(C#N)c2)C1` [US20250213705, Compound 92] registered a concentration for half-maximal inhibition (IC50) of 79.7 nM and a Ki of 0.57 nM. In test [2], this compound came in with a dissociation constant (Kd) of 1.01 nM.
On to `CC(=O)NCCOCCOCCOCCC(=O)N1C[C@H](NC(=O)CCCOc2cc(C#N)cc(C#N)c2)C[C@H]1C(=O)NCC(=O)N[C@@H](Cc1ccc2ccccc2c1)C(=O)NCCCC[C@H](NC(=O)N[C@@H](CCC(=O)O)C(=O)O)C(=O)O` [US20250213705, Compound 91], for which, in test [1], the midpoint of inhibition, the IC50, lay at 26.1 nM and the affinity, expressed as Ki, was 0.187 nM. Besides, the dissociation constant (Kd) in test [2] came to 3.6 nM.
In the case of `CC(=O)NCCOCCOCCOCCC(=O)NC[C@H]1CC[C@H](C(=O)N[C@@H](Cc2ccc3ccccc3c2)C(=O)NCCCC[C@H](NC(=O)N[C@@H](CS)C(=O)O)C(=O)O)CC1` [US20250213705, Compound 28], in test [1], the IC50 came to 21300 nM and the inhibitory constant (Ki) is 152 nM.
In the same order, the values of `CC(=O)NCCOCCOCCOCCC(=O)NC[C@H]1CC[C@H](C(=O)N[C@@H](CCCCNC(=O)C(F)(F)F)C(=O)NCCCC[C@H](NC(=O)N[C@@H](CCC(=O)O)C(=O)O)C(=O)O)CC1` [US20250213705, Compound 54] are 89 nM and 0.636 nM.
In test [1], `CC(=O)NCCOCCOCCOCCC(=O)N(CCCOc1cc(C(F)(F)F)cc(C(F)(F)F)c1)CC(=O)N[C@@H](Cc1ccc2ccccc2c1)C(=O)NCCCC[C@H](NC(=O)N[C@@H](CCC(=O)O)C(=O)O)C(=O)O` [US20250213705, Compound 86] yielded an IC50 of 59.2 nM and an inhibition constant (Ki) of 0.423 nM. For the same compound, in test [2], binding was characterised by a dissociation constant (Kd) of 1.17 nM.
